Results taken from patent US20250026769A1, “PAPD5 INHIBITORS AND METHODS OF USE THEREOF” (The Children's Medical Center Corporation, priority 2021, published 2025).

The molecules below were run against T1, rPAPD5 (Homo sapiens, UniProt Q8NDF8) (assay: differential scanning fluorimetry (DSF) binding and stabilization of rPAPD5). Settings: 1 μM test compound (Table 2a); read-out: ΔTm at 1 μM.
T1 construct: made in house
Description: Binding and stabilization of rPAPD5 by test compounds was determined using differential scanning fluorimetry (DSF). DSF assays were performed to determine protein melting temperature using an indicator dye SYPRO orange (Thermo Fisher Scientific, S6651) diluted 1:5000 in […] of buffer containing […], […] (Jena Biosciences), 25 mM Tris-HCl, 5 mM MgCl2, 50 mM KCl. […] DMSO was used as a negative control. Each curve was an average of three measurements and Thermal Shift software (Thermo Fisher Scientific, 4466038) was used for analysis. […] The change in melting temperature (ΔTm) is in reference to the DMSO control. Referring to Table 2, “+” refers to ΔTm values below 1° C., “++” refers to ΔTm values from 1 to 5° C., and “+++” refers to ΔTm values above 5° C.

T1 sequence (Q8NDF8 68-698 isoform Q8NDF8-5 limits assumed): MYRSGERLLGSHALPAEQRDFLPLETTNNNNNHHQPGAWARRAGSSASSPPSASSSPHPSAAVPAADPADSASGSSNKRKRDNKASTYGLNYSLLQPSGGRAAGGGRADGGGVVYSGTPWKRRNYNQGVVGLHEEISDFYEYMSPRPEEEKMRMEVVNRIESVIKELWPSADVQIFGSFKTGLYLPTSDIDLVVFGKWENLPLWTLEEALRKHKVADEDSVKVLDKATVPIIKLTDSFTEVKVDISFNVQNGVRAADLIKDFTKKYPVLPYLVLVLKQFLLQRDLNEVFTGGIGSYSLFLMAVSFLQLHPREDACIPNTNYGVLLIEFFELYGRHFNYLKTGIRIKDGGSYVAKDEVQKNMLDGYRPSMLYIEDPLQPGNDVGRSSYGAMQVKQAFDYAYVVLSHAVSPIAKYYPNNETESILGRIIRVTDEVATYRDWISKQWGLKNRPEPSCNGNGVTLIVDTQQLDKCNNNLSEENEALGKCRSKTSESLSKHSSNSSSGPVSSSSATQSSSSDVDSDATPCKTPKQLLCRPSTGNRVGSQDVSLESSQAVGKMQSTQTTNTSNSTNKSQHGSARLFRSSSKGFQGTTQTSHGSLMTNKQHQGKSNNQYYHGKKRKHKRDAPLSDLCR

ΔTm at 1 µM [°C]	Compound
> 5	O=C(O)c1cc(Cl)ccc1Nc1c(S(=O)(=O)N2CCS(=O)(=O)CC2)cnc2ccc(Cl)cc12 [Compound 429A, 5-chloro-2-[[6-chloro-3-[(1,1-dioxo-1,4-thiazinan-4-yl)sulfonyl]-4-quinolyl]amino]benzoic acid]

Same assay, conditions: 10 μM test compound (Table 2a); read-out: ΔTm at 10 μM

ΔTm at 10 µM [°C]	Compound
> 5	O=C(O)c1cc(Cl)ccc1Nc1c(S(=O)(=O)N2CCS(=O)(=O)CC2)cnc2ccc(Cl)cc12 [Compound 429A, 5-chloro-2-[[6-chloro-3-[(1,1-dioxo-1,4-thiazinan-4-yl)sulfonyl]-4-quinolyl]amino]benzoic acid]

Same assay, conditions: 100 μM test compound; shift vs DMSO control; read-out: ΔTm at 100 μM

Compound	ΔTm at 100 µM [°C]
O=C(O)c1ccccc1Nc1c(S(=O)(=O)N2CCOCC2)cnc2ccc(-c3ccc4c(c3)OCO4)cc12 [Compound 175A, 2-[[6-(1,3-benzodioxol-5-yl)-3-morpholinosulfonyl-4-quinolyl]amino]benzoic acid]	> 5
O=C(O)c1ccccc1Nc1c(C2=CCNCC2)cnc2ccc(Cl)cc12 [Compound 206A-INT, 2-[[6-chloro-3-(1,2,3,6-tetrahydropyridin-4-yl)-4-quinolyl]amino]benzoic acid]	> 5
O=C(O)c1ccccc1Nc1c(S(=O)(=O)N2CCOCC2)cnc2ccc(-c3c[nH]c4ncc(C(F)(F)F)cc34)cc12 [Compound 147A]	> 5
CNc1ncc2cc(-c3ccc4ncc(S(=O)(=O)N5CCOCC5)c(Nc5ccccc5C(=O)O)c4c3)ccc2n1 [Compound 171A, 2-[[6-[2-(methylamino)quinazolin-6-yl]-3-morpholinosulfonyl-4-quinolyl]amino]benzoic acid]	1 to 5
COCCn1cc(-c2ccc3ncc(S(=O)(=O)N4CCOCC4)c(Nc4ccccc4C(=O)O)c3c2)cn1 [Compound 145A]	> 5
Cn1ncc2ccc(-c3ccc4ncc(S(=O)(=O)N5CCOCC5)c(Nc5ccccc5C(=O)O)c4c3)cc21 [Compound 177A, 2-[[6-(1-methylindazol-6-yl)-3-morpholinosulfonyl-4-quinolyl]amino]benzoic acid]	1 to 5
COc1ncc(-c2ccc3ncc(S(=O)(=O)N4CCOCC4)c(Nc4ccccc4C(=O)O)c3c2)cc1N [Compound 166A, 2-[[6-(5-amino-6-methoxy-3-pyridyl)-3-morpholinosulfonyl-4-quinolyl]amino]benzoic acid]	1 to 5
O=C(O)c1ccccc1Nc1c(S(=O)(=O)N2CCOCC2)cnc2ccc(-c3ccc4[nH]cnc4c3)cc12 [Compound 182A, 2-[[6-(1H-benzimidazol-5-yl)-3-morpholinosulfonyl-4-quinolyl]amino]benzoic acid]	1 to 5
O=C(O)c1ccccc1Nc1c(S(=O)(=O)N2CCOCC2)cnc2ccc(-c3sccc3Cl)cc12 [Compound 140A]	1 to 5
O=C(O)c1ccccc1Nc1c(S(=O)(=O)N2CCOCC2)cnc2ccc(-c3ccc(Oc4ccccc4)nc3)cc12 [Compound 162A, 2-[[3-morpholinosulfonyl-6-(6-phenoxy-3-pyridyl)-4-quinolyl]amino]benzoic acid]	1 to 5
O=C(O)c1ccccc1Nc1c(S(=O)(=O)N2CCOCC2)cnc2ccc(-c3cncc(C4CC4)c3)cc12 [Compound 153A, 2-[[6-(5-cyclopropyl-3-pyridyl)-3-morpholinosulfonyl-4-quinolyl]amino]benzoic acid]	1 to 5
O=C(O)c1ccccc1Nc1c(S(=O)(=O)N2CCOCC2)cnc2ccc(-c3ccnc(N4CCNCC4)c3)cc12 [Compound 169A, 2-[[3-morpholinosulfonyl-6-(2-piperazin-1-yl-4-pyridyl)-4-quinolyl]amino]benzoic acid]	< 1
O=C(O)c1ccccc1Nc1c(S(=O)(=O)N2CCOCC2)cnc2ccc(-c3cc[nH]n3)cc12 [Compound 137A]	1 to 5

More lines, now with the values ahead:

ΔTm at 100 µM [°C]	Compound
> 5	O=C(O)c1ccccc1Nc1c(S(=O)(=O)Nc2ccncc2)cnc2ccc(Cl)cc12 [Compound 221A, 2-[[6-chloro-3-(4-pyridylsulfamoyl)-4-quinolyl]amino]benzoic acid]
> 5	Cc1ccc(C(=O)O)c(Nc2c(S(=O)(=O)N3CCOCC3)cnc3ccc(Cl)cc23)c1 [Compound 272A, 2-[(6-chloro-3-morpholinosulfonyl-4-quinolyl)amino]-4-methyl-benzoic acid]
> 5	O=C(O)c1cc(Cl)ccc1Nc1c(S(=O)(=O)N2CCS(=O)(=O)CC2)cnc2ccc(Cl)cc12 [Compound 429A, 5-chloro-2-[[6-chloro-3-[(1,1-dioxo-1,4-thiazinan-4-yl)sulfonyl]-4-quinolyl]amino]benzoic acid]
< 1	NS(=O)(=O)c1ccc(Nc2c(S(=O)(=O)N3CCOCC3)cnc3ccc(Cl)cc23)c(C(=O)O)c1 [Compound 290A, 2-[(6-chloro-3-morpholinosulfonyl-4-quinolyl)amino]-5-sulfamoyl-benzoic acid]
> 5	O=C(O)c1cccc(F)c1Nc1c(S(=O)(=O)N2CCOCC2)cnc2ccc(Cl)cc12 [Compound 281A, 2-[(6-chloro-3-morpholinosulfonyl-4-quinolyl)amino]-3-fluoro-benzoic acid]
> 5	COc1ccc(C(=O)O)c(Nc2c(S(=O)(=O)N3CCOCC3)cnc3ccc(Cl)cc23)c1 [Compound 277A, 2-[(6-chloro-3-morpholinosulfonyl-4-quinolyl)amino]-4-methoxy-benzoic acid]
1 to 5	CC(=O)NS(=O)(=O)c1ccc2ncc(S(=O)(=O)N3CCOCC3)c(Nc3ccccc3C(=O)O)c2c1 [Compound 235A, 2-[[6-(acetylsulfamoyl)-3-morpholinosulfonyl-4-quinolyl]amino]benzoic acid]
1 to 5	O=C(O)c1cc(C(F)(F)F)ccc1Nc1c(S(=O)(=O)N2CCOCC2)cnc2ccc(Cl)cc12 [Compound 271A, 2-[(6-chloro-3-morpholinosulfonyl-4-quinolyl)amino]-5-(trifluoromethyl)benzoic acid]
> 5	O=C(O)c1cc(B(O)O)ccc1Nc1c(S(=O)(=O)N2CCOCC2)cnc2ccc(Cl)cc12 [Compound 263A, 5-borono-2-[(6-chloro-3-morpholinosulfonyl-4-quinolyl)amino]benzoic acid]
> 5	O=C(O)c1cc(Cl)ccc1Sc1c(S(=O)(=O)N2CCOCC2)cnc2ccc(Cl)cc12 [Compound 330A, 5-chloro-2-[(6-chloro-3-morpholinosulfonyl-4-quinolyl)sulfanyl]benzoic acid]
> 5	O=C(O)c1cc(F)ccc1Nc1c(C2=CCOCC2)cnc2ccc(Cl)cc12 [Compound 304A, 2-[[6-chloro-3-(3,6-dihydro-2H-pyran-4-yl)-4-quinolyl]amino]-5-fluoro-benzoic acid]
1 to 5	O=S(=O)(c1cnc2ccc(Cl)cc2c1Nc1ccccc1B(O)O)N1CCOCC1 [Compound 292A, [2-[(6-chloro-3-morpholinosulfonyl-4-quinolyl)amino]phenyl]boronic acid]
> 5	O=C(O)c1ccccc1Nc1c(S(=O)(=O)NC2CCC(F)(F)CC2)cnc2ccc(Cl)cc12 [Compound 217A, 2-[[6-chloro-3-[(4,4-difluorocyclohexyl)sulfamoyl]-4-quinolyl]amino]benzoic acid]
< 1	O=C(O)c1ccccc1Nc1c(S(=O)(=O)N2CCOCC2)cnc2ccc(B(O)O)cc12 [Compound 321A, 2-[(6-borono-3-morpholinosulfonyl-4-quinolyl)amino]benzoic acid]
> 5	O=C(O)c1ccccc1Nc1c(S(=O)(=O)N2CCOCC2)cnc2ccccc12 [Compound 250A, 2-[(3-morpholinosulfonyl-4-quinolyl)amino]benzoic acid]
> 5	NS(=O)(=O)c1ccc(NS(=O)(=O)c2cnc3ccc(Cl)cc3c2Nc2ccccc2C(=O)O)cc1 [Compound 231A, 2-[[6-chloro-3-[(4-sulfamoylphenyl)sulfamoyl]-4-quinolyl]amino]benzoic acid]
